From PMC5218480 (PLoS ONE, 2017)

Tested on: MV-4-11 cells
Experiment: Gene expression microarray analysis (Affymetrix PrimeView) and GSEA
Format: cell-based, human
Design: RFU PODN (11730768_x_at) / Fold change /veh PODN (11730768_x_at) / RFU LINC00158 (11744669_a_at) / Fold change /veh LINC00158 (11744669_a_at) / RFU DUSP10 (11751237_a_at) / Fold change /veh DUSP10 (11751237_a_at) / RFU ID3 (11757404_x_at) / Fold change /veh ID3 (11757404_x_at) / RFU PLEKHG5 (11737974_s_at) / Fold change /veh PLEKHG5 (11737974_s_at) / RFU LRRC4B (11730491_at) / Fold change /veh LRRC4B (11730491_at) / RFU GIMAP4 (11747438_a_at) / Fold change /veh GIMAP4 (11747438_a_at) / RFU KRT8 (11758183_x_at) / Fold change /veh KRT8 (11758183_x_at) / RFU CNN1 (11734310_a_at) / Fold change /veh CNN1 (11734310_a_at) / RFU VPS37D (11726825_at) / Fold change /veh VPS37D (11726825_at) / RFU C10orf10 (11716522_x_at) / Fold change /veh C10orf10 (11716522_x_at) / RFU KIR2DL2 /// KIR2DL4 /// KIR2DL5A /// KIR2DL5B /// KIR2DS1 /// KIR2DS2 /// KIR2DS3 /// KIR2DS4 /// KIR3DL3 /// KIR3DL3 /// KIR3DS1 (11738374_at) / Fold change /veh KIR2DL2 /// KIR2DL4 /// KIR2DL5A /// KIR2DL5B /// KIR2DS1 /// KIR2DS2 /// KIR2DS3 /// KIR2DS4 /// KIR3DL3 /// KIR3DL3 /// KIR3DS1 (11738374_at) / RFU C1QL1 (11718748_at) / Fold change /veh C1QL1 (11718748_at) / RFU TMPRSS4 (11747572_a_at) / Fold change /veh TMPRSS4 (11747572_a_at) / RFU HAMP (11756126_x_at) / Fold change /veh HAMP (11756126_x_at) / RFU RNFT2 (11725882_a_at) / Fold change /veh RNFT2 (11725882_a_at) / RFU NR4A2 (11747474_a_at) / Fold change /veh NR4A2 (11747474_a_at) / RFU ABCC12 (11746883_a_at) / Fold change /veh ABCC12 (11746883_a_at) / RFU TMEM136 (11760407_x_at) / Fold change /veh TMEM136 (11760407_x_at) / RFU CLDN22 /// WWC2 (11732394_at) / Fold change /veh CLDN22 /// WWC2 (11732394_at) / RFU HLA-DPB1 (11760878_x_at) / Fold change /veh HLA-DPB1 (11760878_x_at) / RFU SPINT1 (11716480_a_at) / Fold change /veh SPINT1 (11716480_a_at) / RFU GAP43 (11754022_s_at) / Fold change /veh GAP43 (11754022_s_at) / RFU A4GNT (11735810_at) / Fold change /veh A4GNT (11735810_at) / RFU PRB3 (11715151_x_at) / Fold change /veh PRB3 (11715151_x_at) / RFU TUBB4B (11761932_at) / Fold change /veh TUBB4B (11761932_at) / RFU CAPN14 (11732068_a_at) / Fold change /veh CAPN14 (11732068_a_at) / RFU TMCC2 (11721928_a_at) / Fold change /veh TMCC2 (11721928_a_at) / RFU IRGQ (11745062_a_at) / Fold change /veh IRGQ (11745062_a_at) / RFU FAM174B (11720279_a_at) / Fold change /veh FAM174B (11720279_a_at) / RFU TMPRSS4 (11748680_a_at) / Fold change /veh TMPRSS4 (11748680_a_at) / RFU FAM212B (11763350_a_at) / Fold change /veh FAM212B (11763350_a_at) / RFU PLEKHG5 (11743358_a_at) / Fold change /veh PLEKHG5 (11743358_a_at) / RFU ZSCAN30 (11745921_a_at) / Fold change /veh ZSCAN30 (11745921_a_at) / RFU CMKLR1 (11741424_a_at) / Fold change /veh CMKLR1 (11741424_a_at) / RFU LOC101060620 /// MAPK8IP1 (11723275_at) / Fold change /veh LOC101060620 /// MAPK8IP1 (11723275_at) / RFU SPTSSB (11747773_x_at) / Fold change /veh SPTSSB (11747773_x_at) / RFU PRSS12 (11739890_at) / Fold change /veh PRSS12 (11739890_at) / RFU BIN1 (11741810_x_at) / Fold change /veh BIN1 (11741810_x_at) / RFU WNT11 (11732464_a_at) / Fold change /veh WNT11 (11732464_a_at) / RFU C10orf10 (11716521_a_at) / Fold change /veh C10orf10 (11716521_a_at) / RFU C5orf56 (11738089_at) / Fold change /veh C5orf56 (11738089_at) / RFU CYB561 (11721691_x_at) / Fold change /veh CYB561 (11721691_x_at) / RFU ANKRD19P (11752326_a_at) / Fold change /veh ANKRD19P (11752326_a_at) / RFU OR2T12 /// OR2T33 /// OR2T8 (11738714_s_at) / Fold change /veh OR2T12 /// OR2T33 /// OR2T8 (11738714_s_at) / RFU VCAN (11748164_a_at) / Fold change /veh VCAN (11748164_a_at) / RFU JSRP1 (11732532_at) / Fold change /veh JSRP1 (11732532_at) / RFU KRTAP10-11 (11738290_x_at) / Fold change /veh KRTAP10-11 (11738290_x_at) / RFU MYO3A (11730013_a_at) / Fold change /veh MYO3A (11730013_a_at) / RFU EBF3 (11725865_a_at) / Fold change /veh EBF3 (11725865_a_at) / RFU CAMK2N1 (11719241_x_at) / Fold change /veh CAMK2N1 (11719241_x_at) / RFU C5orf56 (11738088_a_at) / Fold change /veh C5orf56 (11738088_a_at) / RFU OLFML3 (11715873_a_at) / Fold change /veh OLFML3 (11715873_a_at) / RFU LOC100653217 /// NTM (11731650_a_at) / Fold change /veh LOC100653217 /// NTM (11731650_a_at) / RFU MAPK11 (11762145_a_at) / Fold change /veh MAPK11 (11762145_a_at) / RFU FIZ1 (11724087_x_at) / Fold change /veh FIZ1 (11724087_x_at) / RFU OASL (11726364_x_at) / Fold change /veh OASL (11726364_x_at) / RFU SOX15 (11748057_x_at) / Fold change /veh SOX15 (11748057_x_at) / RFU CD79A (11719716_a_at) / Fold change /veh CD79A (11719716_a_at) / RFU HIST1H1D (11736915_at) / Fold change /veh HIST1H1D (11736915_at) / RFU CASKIN2 (11723855_a_at) / Fold change /veh CASKIN2 (11723855_a_at) / RFU LOC730098 (11760151_x_at) / Fold change /veh LOC730098 (11760151_x_at) / RFU OR4N2 (11742367_at) / Fold change /veh OR4N2 (11742367_at) / RFU PRRT2 (11749266_a_at) / Fold change /veh PRRT2 (11749266_a_at) / RFU SNX32 (11753110_a_at) / Fold change /veh SNX32 (11753110_a_at) / RFU CDHR5 (11726645_a_at) / Fold change /veh CDHR5 (11726645_a_at) / RFU RCAN1 (11760418_a_at) / Fold change /veh RCAN1 (11760418_a_at) / RFU FAM167A (11723789_a_at) / Fold change /veh FAM167A (11723789_a_at) / RFU FAM26E (11764081_at) / Fold change /veh FAM26E (11764081_at) / RFU ISYNA1 (11749810_s_at) / Fold change /veh ISYNA1 (11749810_s_at) / RFU ACY1 (11761880_at) / Fold change /veh ACY1 (11761880_at) / RFU 11764098_at / Fold change /veh 11764098_at / RFU SAMD14 (11745864_x_at) / Fold change /veh SAMD14 (11745864_x_at) / RFU NPB (11741838_a_at) / Fold change /veh NPB (11741838_a_at) / RFU TMPRSS6 (11731388_a_at) / Fold change /veh TMPRSS6 (11731388_a_at) / RFU KRTAP10-2 (11738614_at) / Fold change /veh KRTAP10-2 (11738614_at) / RFU ARHGAP8 /// PRR5-ARHGAP8 (11727945_x_at) / Fold change /veh ARHGAP8 /// PRR5-ARHGAP8 (11727945_x_at) / RFU KRTAP5-7 /// NADSYN1 (11734609_at) / Fold change /veh KRTAP5-7 /// NADSYN1 (11734609_at) / RFU RASL12 (11751679_a_at) / Fold change /veh RASL12 (11751679_a_at) / RFU CDKN2B (11736163_a_at) / Fold change /veh CDKN2B (11736163_a_at) / RFU PRF1 (11729649_at) / Fold change /veh PRF1 (11729649_at) / RFU, ZNF638 /// ZNF638-IT1 / Fold change vs veh, ZNF638 /// ZNF638-IT1 / RFU, PANK3 / Fold change vs veh, PANK3 / RFU, SH3YL1 / Fold change vs veh, SH3YL1 / RFU, ZEB2 / Fold change vs veh, ZEB2 / RFU, NRIP1 / Fold change vs veh, NRIP1 / RFU, PTTG1IP / Fold change vs veh, PTTG1IP / RFU, CAPN2 / Fold change vs veh, CAPN2 / RFU, MED14 / Fold change vs veh, MED14 / RFU, SNORA58 / Fold change vs veh, SNORA58 / RFU, C1orf63 / Fold change vs veh, C1orf63 / RFU, LRRFIP1 / Fold change vs veh, LRRFIP1 / RFU, NDUFAF7 / Fold change vs veh, NDUFAF7 / RFU, SLC12A2 / Fold change vs veh, SLC12A2 / RFU, IBTK / Fold change vs veh, IBTK / RFU, ESF1 / Fold change vs veh, ESF1 / Fold change vs veh, TMEM50B / RFU, TAOK1 / Fold change vs veh, TAOK1 / RFU, ACBD3 / Fold change vs veh, ACBD3 / RFU, TMA16 / Fold change vs veh, TMA16 / RFU, RWDD3 / Fold change vs veh, RWDD3 / RFU, BCAT1 / Fold change vs veh, BCAT1 / RFU, EDEM3 / Fold change vs veh, EDEM3 / RFU, TMEM33 / Fold change vs veh, TMEM33 / RFU, WDR75 / Fold change vs veh, WDR75 / RFU, AHCTF1 / Fold change vs veh, AHCTF1 / RFU, TFRC / Fold change vs veh, TFRC / RFU, ZDHHC17 / Fold change vs veh, ZDHHC17 / RFU, NOM1 / Fold change vs veh, NOM1 / RFU, ARL8B / Fold change vs veh, ARL8B / RFU, ZBTB11 / Fold change vs veh, ZBTB11 / RFU, TAMM41 / Fold change vs veh, TAMM41 / RFU, KIAA1704 /// LOC100996395 / Fold change vs veh, KIAA1704 /// LOC100996395 / RFU, ING1 / Fold change vs veh, ING1 / RFU, TRMT61B / Fold change vs veh, TRMT61B / RFU, FUBP3 / Fold change vs veh, FUBP3 / RFU, TP53 / Fold change vs veh, TP53 / RFU, TNKS2 / Fold change vs veh, TNKS2 / RFU, ZFP14 / Fold change vs veh, ZFP14 / RFU, ACTR2 / Fold change vs veh, ACTR2 / RFU, PPP3R1 / Fold change vs veh, PPP3R1 / RFU, PIK3R1 / Fold change vs veh, PIK3R1 / RFU, HNRNPA1 / Fold change vs veh, HNRNPA1 / RFU, RNF170 / Fold change vs veh, RNF170 / RFU, ZNF28 / Fold change vs veh, ZNF28 / RFU, RNGTT / Fold change vs veh, RNGTT / RFU, OGT / Fold change vs veh, OGT / RFU, BRD1 / Fold change vs veh, BRD1 / RFU, MARS / Fold change vs veh, MARS / RFU, ZNF655 / Fold change vs veh, ZNF655 / RFU, FAHD1 / Fold change vs veh, FAHD1 / RFU, BDP1 / Fold change vs veh, BDP1 / RFU, LRRCC1 / Fold change vs veh, LRRCC1 / RFU, ARID1A / Fold change vs veh, ARID1A / RFU, ZNF146 / Fold change vs veh, ZNF146 / RFU, ZNF330 / Fold change vs veh, ZNF330 / RFU, GPN3 / Fold change vs veh, GPN3 / RFU, C9orf123 / Fold change vs veh, C9orf123 / RFU, N4BP2L2 / Fold change vs veh, N4BP2L2 / RFU, ARFIP1 / Fold change vs veh, ARFIP1 / RFU, FAM179B / Fold change vs veh, FAM179B / RFU, BCL10 / Fold change vs veh, BCL10 / RFU, UHRF1BP1L / Fold change vs veh, UHRF1BP1L / RFU, BET1 / Fold change vs veh, BET1 / RFU, CNOT2 / Fold change vs veh, CNOT2 / RFU, ZNF268 / Fold change vs veh, ZNF268 / Fold change vs veh, ZNF507 / RFU, DGCR2 / Fold change vs veh, DGCR2 / RFU, WDSUB1 / Fold change vs veh, WDSUB1 / Fold change vs veh, HSP90B1 /// MIR3652 / RFU, ADSS / Fold change vs veh, ADSS / RFU, GK / Fold change vs veh, GK / RFU, ZNF148 / Fold change vs veh, ZNF148 / RFU, TAF9 / Fold change vs veh, TAF9 / RFU, SLC1A5 / Fold change vs veh, SLC1A5 / RFU, SLMO2 / Fold change vs veh, SLMO2 / RFU, ABCC4 / Fold change vs veh, ABCC4 / RFU, LOC101060439 /// RAP1B / Fold change vs veh, LOC101060439 /// RAP1B / RFU, RFX7 / Fold change vs veh, RFX7 / RFU, GTPBP10 / Fold change vs veh, GTPBP10 / RFU, CNEP1R1 / Fold change vs veh, CNEP1R1 / RFU, BIVM-ERCC5 /// ERCC5 / Fold change vs veh, BIVM-ERCC5 /// ERCC5 / RFU, ILF3 / Fold change vs veh, ILF3 / RFU 11762660_at / Fold change /veh 11762660_at / RFU VCAN (11757783_s_at) / Fold change /veh VCAN (11757783_s_at) / RFU DDX43 (11728927_at) / Fold change /veh DDX43 (11728927_at) / RFU KRT8 (11758188_x_at) / Fold change /veh KRT8 (11758188_x_at) / RFU NKD1 (11759106_at) / Fold change /veh NKD1 (11759106_at) / RFU SRD5A1 (11742802_a_at) / Fold change /veh SRD5A1 (11742802_a_at) / RFU TPSAB1 /// TPSB2 (11721975_s_at) / Fold change /veh TPSAB1 /// TPSB2 (11721975_s_at) / RFU GSTM3 (11746129_a_at) / Fold change /veh GSTM3 (11746129_a_at) / RFU IL23R (11737362_x_at) / Fold change /veh IL23R (11737362_x_at) / RFU TMEM51 (11727254_a_at) / Fold change /veh TMEM51 (11727254_a_at) / RFU PIWIL2 (11732686_x_at) / Fold change /veh PIWIL2 (11732686_x_at) / RFU ORM1 (11744905_x_at) / Fold change /veh ORM1 (11744905_x_at) / RFU CCDC152 (11743942_at) / Fold change /veh CCDC152 (11743942_at) / RFU ECM1 (11717891_a_at) / Fold change /veh ECM1 (11717891_a_at) / RFU IL23R (11748794_a_at) / Fold change /veh IL23R (11748794_a_at) / RFU TNFAIP8L3 (11732012_x_at) / Fold change /veh TNFAIP8L3 (11732012_x_at) / RFU MBOAT4 (11741988_at) / Fold change /veh MBOAT4 (11741988_at) / RFU 11764193_at / Fold change /veh 11764193_at / RFU TMEM53 (11763286_at) / Fold change /veh TMEM53 (11763286_at) / RFU MAGEB2 (11727129_at) / Fold change /veh MAGEB2 (11727129_at) / RFU TMEM200A (11744735_a_at) / Fold change /veh TMEM200A (11744735_a_at) / RFU CCDC152 (11751479_a_at) / Fold change /veh CCDC152 (11751479_a_at) / RFU FAM211A (11726209_a_at) / Fold change /veh FAM211A (11726209_a_at) / RFU RGS16 (11746705_a_at) / Fold change /veh RGS16 (11746705_a_at) / RFU VCAN (11755009_s_at) / Fold change /veh VCAN (11755009_s_at) / RFU RHOB (11743442_s_at) / Fold change /veh RHOB (11743442_s_at) / RFU RGS16 (11720943_a_at) / Fold change /veh RGS16 (11720943_a_at) / RFU RGS16 (11720944_at) / Fold change /veh RGS16 (11720944_at) / RFU, VPS4B / Fold change vs veh, VPS4B / RFU, CREB1 / Fold change vs veh, CREB1 / RFU, DNAJC13 / Fold change vs veh, DNAJC13 / RFU, GNAQ / Fold change vs veh, GNAQ / RFU, CDK5R1 / Fold change vs veh, CDK5R1 / RFU, ZRANB3 / Fold change vs veh, ZRANB3 / RFU, CUL4A / Fold change vs veh, CUL4A / RFU, CCNY / Fold change vs veh, CCNY / RFU, UFL1 / Fold change vs veh, UFL1 / RFU, COG3 / Fold change vs veh, COG3 / RFU, DIAPH2 / Fold change vs veh, DIAPH2 / RFU, SKA2 / Fold change vs veh, SKA2 / RFU, AFF3 / Fold change vs veh, AFF3 / RFU, LMF1 / Fold change vs veh, LMF1 / RFU, IPO11 / Fold change vs veh, IPO11 / RFU, DFFB / Fold change vs veh, DFFB / RFU, FOXP1 / Fold change vs veh, FOXP1 / RFU, CARD8 / Fold change vs veh, CARD8 / RFU, STRN3 / Fold change vs veh, STRN3 / RFU, ADK / Fold change vs veh, ADK / RFU, RASSF2 / Fold change vs veh, RASSF2 / RFU, WIPF1 / Fold change vs veh, WIPF1 / RFU, LARP1B / Fold change vs veh, LARP1B / RFU, RASA1 / Fold change vs veh, RASA1 / RFU, RB1 / Fold change vs veh, RB1 / RFU, PPFIA1 / Fold change vs veh, PPFIA1 / RFU, MAT2A / Fold change vs veh, MAT2A / RFU, CCT5 / Fold change vs veh, CCT5 / RFU, WDR92 / Fold change vs veh, WDR92 / RFU, CUX1 / Fold change vs veh, CUX1 / RFU, TTC7A / Fold change vs veh, TTC7A / RFU, TMEM135 / Fold change vs veh, TMEM135 / RFU, DEPTOR / Fold change vs veh, DEPTOR / RFU, CPM / Fold change vs veh, CPM / RFU, DNAJB6 / Fold change vs veh, DNAJB6 / RFU, CACNA2D3 / Fold change vs veh, CACNA2D3 / RFU, DTX4 / Fold change vs veh, DTX4 / RFU, TFCP2 / Fold change vs veh, TFCP2 / RFU, GMCL1 /// GMCL1P1 / Fold change vs veh, GMCL1 /// GMCL1P1 / RFU, AEBP2 / Fold change vs veh, AEBP2 / RFU, SNHG1 /// SNORD22 /// SNORD25 /// SNORD26 /// SNORD27 /// SNORD28 /// SNORD29 /// SNORD31 / Fold change vs veh, SNHG1 /// SNORD22 /// SNORD25 /// SNORD26 /// SNORD27 /// SNORD28 /// SNORD29 /// SNORD31 / Fold change (Aza/veh), C12orf56 (ProbeSet 11735607_a_at) / Fold change (ACY-1035/veh), C12orf56 (ProbeSet 11735607_a_at) / Fold change (Aza/veh), FGFR1OP (ProbeSet 11751329_s_at) / Fold change (ACY-1035/veh), FGFR1OP (ProbeSet 11751329_s_at) / Fold change (Aza/veh), VPS36 (ProbeSet 11739960_a_at) / Fold change (ACY-1035/veh), VPS36 (ProbeSet 11739960_a_at) / RFU SYPL1 (11715823_x_at) / Fold change /veh SYPL1 (11715823_x_at) / RFU IGFBP7 (11715501_s_at) / Fold change /veh IGFBP7 (11715501_s_at) / RFU REEP3 (11722064_at) / Fold change /veh REEP3 (11722064_at) / RFU IGLL1 (11728026_x_at) / Fold change /veh IGLL1 (11728026_x_at): dose or concentration left out as unconfirmed
Details: MV-4-11 cells, 48 hours

Compound: Nc1ccc(-c2cccs2)cc1NC(=O)c1ccc2c(c1)cc(C1CC1)n2CCN1CCOCC1 [ACY-1035]
- RFU NKD1 (11759106_at): 19.24 RFU
